The values below come from patent US10131670B2, “Bicyclic heteroaryl derivatives as CFTR potentiators” (CYSTIC FIBROSIS FOUNDATION THERAPEUTICS, INC., priority 2016, dated 2018).

One test addresses CFTR (Homo sapiens, UniProt P13569). Description: Ussing Chamber Electrophysiology Assay of CFTR Potentiation in CF Bronchial Epithelial Cells. It counts as cell-based. To be noted: primary CF hBE cells, short-circuit current, scaled to DMSO (0%) and positive control potentiator (100%). The text has this: Ussing Chamber Electrophysiology Assay of CFTR Potentiation in CF Bronchial Epithelial Cells
Primary cystic fibrosis human bronchial epithelial (CF hBE) cells were expanded and cultured according to published methods (Neuberger et al., Ch. 4 of Cystic Fibrosis, Methods in Molecular Biology vol. 741, pp. 39-54 (2011)). Well-differentiated cells (>30 days at air/liquid interface) on Snapwell filters (Corning Costar, cat. no. 3801) were mounted in Ussing chambers (Physiologic Instruments, Inc., San Diego, Calif.). F508del/F508del cultures were assayed at 27° C. and G551D/F508del cells were assayed at 35° C. HEPES buffered physiological saline (composition (in mM): 137 NaCl, 4 KCl, 1 MgCl2, 1.8 CaCl2, 10 HEPES Na) was used in both apical and basolateral chambers. Chambers were bubbled with air to promote mixing and the voltage was clamped to zero. Amiloride (30 uM), forskolin (10 uM), test compound (4 increasing concentrations), and CFTRinh-172 (20 uM) were added sequentially with 20-25 minutes between additions. Short-circuit currents were acquired and analyzed using LabScribe2. Test compound responses were scaled relative to responses for DMSO (0%) and the maximal response of a positive control potentiator (100%).

For a further test, the target named is F508del V470 CFTR (Homo sapiens, UniProt P13569, DEL508-508). Nature of the test: FRT Ion Flux Assay of F508del CFTR Potentiation. It counts as cell-based. The conditions noted are these: FRT cells expressing F508del V470 CFTR and halide-sensitive YFP, forskolin 20 uM, 30 min. How it is done:
FRT Ion Flux Assay of F508del CFTR Potentiation
Fischer rat thyroid (FRT) cell lines stably expressing recombinant F508del V470 CFTR and halide-sensitive yellow fluorescent protein (Pedemonte et al., J. Clin. Invest. 115(9) 2564-71 (2005)) were seeded at 25,000 cells/well in 50 uL/well of culture medium into black-walled, clear bottom tissue-culture-treated 384-well plates (Corning, cat. no. 3712). After one day, the cells were pre-incubated at 27° C./5% CO2 for 16-24 hours. The cells were then washed with dPBS and treated with forskolin (20 uM) and test compound for 30 min by addition of 20 uL of compound dilution buffer (dPBS containing forskolin and test compound). Plates were loaded into FLIPR384 fluorescence imaging plate reader (Molecular Devices). After an initial fluorescence reading, iodide buffer (25 uL) (composition (in mM): 137 NaI, 1.5 K2PO4, 8.1 NaH2PO4, 2.7 KCl, 0.5 MgCl2, 1 CaCl2) was added and a second fluorescence reading was made after approximately 21 seconds. Data treatment involved division of the second fluorescence reading by the initial fluorescence reading, then scaling of the resulting normalized endpoint fluorescence with respect to the responses for DMSO (0%) and a positive control potentiator (100%).

Counter-ions that a name gives are not always drawn.

F508del V470 CFTR, sequence (P13569 with tags, fused parts or gaps DEL508-508): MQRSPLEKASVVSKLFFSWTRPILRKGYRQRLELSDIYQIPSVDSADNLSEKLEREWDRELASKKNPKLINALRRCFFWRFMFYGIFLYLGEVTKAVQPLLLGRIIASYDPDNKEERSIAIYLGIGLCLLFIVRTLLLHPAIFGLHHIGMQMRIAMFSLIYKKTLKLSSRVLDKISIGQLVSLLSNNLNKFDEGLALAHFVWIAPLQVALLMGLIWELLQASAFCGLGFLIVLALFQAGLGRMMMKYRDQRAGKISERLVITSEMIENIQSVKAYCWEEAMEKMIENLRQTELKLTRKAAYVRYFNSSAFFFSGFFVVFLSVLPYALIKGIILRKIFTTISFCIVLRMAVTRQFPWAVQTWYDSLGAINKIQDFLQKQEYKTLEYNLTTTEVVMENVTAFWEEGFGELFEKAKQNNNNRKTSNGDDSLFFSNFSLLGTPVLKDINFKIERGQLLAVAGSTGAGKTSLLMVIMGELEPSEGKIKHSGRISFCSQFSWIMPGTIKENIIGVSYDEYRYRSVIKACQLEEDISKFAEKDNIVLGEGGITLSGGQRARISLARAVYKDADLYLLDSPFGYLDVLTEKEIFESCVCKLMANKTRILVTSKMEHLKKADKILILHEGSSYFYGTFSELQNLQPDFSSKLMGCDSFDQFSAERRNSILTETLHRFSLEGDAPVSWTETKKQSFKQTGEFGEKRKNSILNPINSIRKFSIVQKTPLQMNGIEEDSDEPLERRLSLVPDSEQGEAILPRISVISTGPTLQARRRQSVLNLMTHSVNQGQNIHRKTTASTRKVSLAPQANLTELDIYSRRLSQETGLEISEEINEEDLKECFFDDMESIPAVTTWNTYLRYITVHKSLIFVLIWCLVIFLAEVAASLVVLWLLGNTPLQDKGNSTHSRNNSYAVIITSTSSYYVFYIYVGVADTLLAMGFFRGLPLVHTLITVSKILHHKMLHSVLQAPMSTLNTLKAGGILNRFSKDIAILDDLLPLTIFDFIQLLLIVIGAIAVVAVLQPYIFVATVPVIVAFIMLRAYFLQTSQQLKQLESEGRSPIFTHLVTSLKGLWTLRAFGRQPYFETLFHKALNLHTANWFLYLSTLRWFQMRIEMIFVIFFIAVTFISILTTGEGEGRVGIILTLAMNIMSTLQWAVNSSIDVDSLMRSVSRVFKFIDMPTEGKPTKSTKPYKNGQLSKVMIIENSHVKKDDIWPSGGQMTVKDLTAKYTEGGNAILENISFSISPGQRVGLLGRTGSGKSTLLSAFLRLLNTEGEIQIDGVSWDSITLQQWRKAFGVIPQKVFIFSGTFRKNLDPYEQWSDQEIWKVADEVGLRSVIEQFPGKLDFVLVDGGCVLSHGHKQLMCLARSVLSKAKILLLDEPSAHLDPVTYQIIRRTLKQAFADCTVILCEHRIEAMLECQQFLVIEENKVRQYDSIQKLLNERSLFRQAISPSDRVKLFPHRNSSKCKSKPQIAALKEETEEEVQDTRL

`CCC(c1cnn(-c2ccccc2F)c1)n1nc(-c2cnc(C(F)(F)F)nc2)c2c(N)ncnc21` (single isomer, unassigned) [Example 87, 1-{1-[1-(2-fluorophenyl)-1H-pyrazol-4-yl]propyl}-3-[2-(trifluoromethyl)pyrimidin-5-yl]-1H-pyrazolo[3,4-d]pyrimidin-4-amine]: the EC50 on CFTR was 1.53 nM; on F508del V470 CFTR, 4.76 nM. With `CC(c1cnn(-c2ccccc2F)c1)c1c(C#N)c(-c2cnc(C(F)F)nc2)c2c(N)ncnn12` (single isomer, unassigned) [Example 96, 4-amino-5-[2-(difluoromethyl)pyrimidin-5-yl]-7-{1-[1-(2-fluorophenyl)-1H-pyrazol-4-yl]ethyl}pyrrolo[2,1-f][1,2,4]triazine-6-carbonitrile], the EC50 at CFTR was found to be 0.4 nM. For the compound `CCC(c1cn(-c2ccccc2F)nn1)c1cc(-c2cncnc2OC)c2c(N)ncnn12` (stereo not drawn) [Example 83, 7-{1-[1-(2-fluorophenyl)-1H-1,2,3-triazol-4-yl]propyl}-5-(4-methoxypyrimidin-5-yl)pyrrolo[2,1-f][1,2,4]triazin-4-amine], the EC50 on CFTR was determined as 16 nM; on F508del V470 CFTR, 18.4 nM. Taken in the same sequence, the figures for `CCC(c1cn(-c2ccccc2F)nn1)n1nc(-c2cnc(C(F)(F)F)nc2)c2c(N)ncnc21` (single isomer, unassigned) [Example 89, 1-{1-[1-(2-fluorophenyl)-1H-1,2,3-triazol-4-yl]propyl}-3-[2-(trifluoromethyl)pyrimidin-5-yl]-1H-pyrazolo[3,4-d]pyrimidin-4-amine] were 189 nM and 219 nM.

On to `CCC(c1cnn(-c2ccc(F)cc2F)c1)c1c(C#N)c(-c2cnc(C(F)(F)F)nc2)c2c(N)ncnn12` (single isomer, unassigned) [Example 17, 4-amino-7-{1-[1-(2,4-difluorophenyl)-1H-pyrazol-4-yl]propyl}-5-[2-(trifluoromethyl)pyrimidin-5-yl]pyrrolo[2,1-f][1,2,4]triazine-6-carbonitrile], for which the EC50 on CFTR was determined as 3 nM; on F508del V470 CFTR, 13.3 nM. Taken in the same sequence, the figures for `N#Cc1c(-c2cnc(C(F)F)nc2)c2c(N)ncnn2c1Cc1cnn(-c2ccccc2F)c1` [Example 31, 4-amino-5-[2-(difluoromethyl)pyrimidin-5-yl]-7-{[1-(2-fluorophenyl)-1H-pyrazol-4-yl]methyl}pyrrolo[2,1-f][1,2,4]triazine-6-carbonitrile] were 1.05 nM and 0.41 nM.

On to `CC(O)(c1cn(-c2ccccc2F)nn1)c1cc(-c2cnc(C(F)(F)F)nc2)c2c(N)ncnn12` (single isomer, unassigned) [Example 68, 1-{4-amino-5-[2-(trifluoromethyl)pyrimidin-5-yl]pyrrolo[2,1-f][1,2,4]triazin-7-yl}-1-[1-(2-fluorophenyl)-1H-1,2,3-triazol-4-yl]ethanol], for which, at F508del V470 CFTR, the EC50 turned out to be 2310 nM. Consider `N#Cc1c(-c2cnc(C(F)(F)F)nc2)c2c(N)ncnn2c1Cc1cn(-c2ccccc2F)nn1` [Example 22, 4-amino-7-{[1-(2-fluorophenyl)-1H-1,2,3-triazol-4-yl]methyl}-5-[2-(trifluoromethyl)pyrimidin-5-yl]pyrrolo[2,1-f][1,2,4]triazine-6-carbonitrile], for which the EC50 on CFTR stood at 27.1 nM; on F508del V470 CFTR it was 23.3 nM. Taken in the same sequence, the figures for `CCC(c1cn(-c2ccc(F)c(F)c2)nn1)c1cc(-c2cnc(C(F)(F)F)nc2)c2c(N)ncnn12` (single isomer, unassigned) [Example 63, 7-{1-[1-(3,4-difluorophenyl)-1H-1,2,3-triazol-4-yl]propyl}-5-[2-(trifluoromethyl)pyrimidin-5-yl]pyrrolo[2,1-f][1,2,4]triazin-4-amine] were 19.3 nM and 29.6 nM.

As for `CCC(c1cn(-c2ccc(F)cc2F)nn1)c1cc(-c2cnc(C(F)(F)F)nc2)c2c(N)ncnn12` (single isomer, unassigned) [Example 59, 7-{1-[1-(2,4-difluorophenyl)-1H-1,2,3-triazol-4-yl]propyl}-5-[2-(trifluoromethyl)pyrimidin-5-yl]pyrrolo[2,1-f][1,2,4]triazin-4-amine], the figures for the EC50 on CFTR and at F508del V470 CFTR were 115 nM and 249 nM, respectively. As to `N#Cc1c(-c2cnc(C(F)(F)F)nc2)c2c(N)ncnn2c1Cc1cc(-c2ccccc2F)no1` [Example 35, 4-amino-7-{[3-(2-fluorophenyl)-1,2-oxazol-5-yl]methyl}-5-[2-(trifluoromethyl)pyrimidin-5-yl]pyrrolo[2,1-f][1,2,4]triazine-6-carbonitrile], the EC50 was 4 nM on CFTR and 4.65 nM at F508del V470 CFTR. Taken in the same sequence, the figures for `Nc1ncnn2c(Cc3cn(-c4ccccc4F)nn3)nc(-c3ccc(Cl)cc3)c12` [Example 93, 5-(4-Chlorophenyl)-7-{[1-(2-fluorophenyl)-1H-1,2,3-triazol-4-yl]methyl}imidazo[5,1-f][1,2,4]triazin-4-amine trifluoroacetate] were 116 nM and 54.4 nM. Taken in the same sequence, the figures for `CC(c1cc(-c2ccccc2F)no1)c1c(C#N)c(-c2cnc(C(F)(F)F)nc2)c2c(N)ncnn12` (single isomer, unassigned) [Example 18, 4-amino-7-{1-[3-(2-fluorophenyl)-1,2-oxazol-5-yl]ethyl}-5-[2-(trifluoromethyl)pyrimidin-5-yl]pyrrolo[2,1-f][1,2,4]triazine-6-carbonitrile] were 1.67 nM and 3.1 nM. Taken in the same sequence, the figures for `N#Cc1c(-c2cnc(C(F)(F)F)nc2)c2c(N)ncnn2c1Cc1cnn(-c2ccccc2F)c1` [Example 30, 4-amino-7-{[1-(2-fluorophenyl)-1H-pyrazol-4-yl]methyl}-5-[2-(trifluoromethyl)pyrimidin-5-yl]pyrrolo[2,1-f][1,2,4]triazine-6-carbonitrile] were 0.86 nM and 0.57 nM. For the compound `CC(c1cnn(-c2ccc(F)cc2F)c1)c1c(C#N)c(-c2cnc(C(F)(F)F)nc2)c2c(N)ncnn12` (single isomer, unassigned) [Example 21], the figures for the EC50 at CFTR and at F508del V470 CFTR were 0.66 nM and 3.13 nM, respectively. For `CCC(c1cnn(-c2ccccc2F)c1)c1c(C#N)c(-c2cnc(C(F)(F)F)nc2)c2c(N)ncnn12` (single isomer, unassigned) [Example 15, 4-amino-7-{1-[1-(2-fluorophenyl)-1H-pyrazol-4-yl]propyl}-5-[2-(trifluoromethyl)pyrimidin-5-yl]pyrrolo[2,1-f][1,2,4]triazine-6-carbonitrile], the results for the EC50 on CFTR and at F508del V470 CFTR were 0.2 nM and 0.56 nM, respectively. Taken in the same sequence, the figures for `CC(c1cn(-c2ccc(F)cc2F)nn1)c1c(C#N)c(-c2cnc(C(F)(F)F)nc2)c2c(N)ncnn12` (stereo not drawn) [Example 24, 4-amino-7-{1-[1-(2,4-difluorophenyl)-1H-1,2,3-triazol-4-yl]ethyl}-5-[2-(trifluoromethyl)pyrimidin-5-yl]pyrrolo[2,1-f][1,2,4]triazine-6-carbonitrile] were 20.9 nM and 28.7 nM. Taken in the same sequence, the figures for `CCC(c1cn(-c2ccccc2F)nn1)c1cc(-c2cnc(C(F)(F)F)nc2)c2c(N)ncnn12` (single isomer, unassigned) [Example 58, 7-{1-[1-(2-fluorophenyl)-1H-1,2,3-triazol-4-yl]propyl}-5-[2-(trifluoromethyl)pyrimidin-5-yl]pyrrolo[2,1-f][1,2,4]triazin-4-amine] were 36.6 nM and 91.2 nM. For the compound `CC(c1cnn(-c2ccccc2F)c1)c1c(C#N)c(-c2cnc(C(F)F)nc2)c2c(N)ncnn12` (single isomer, unassigned) [Example 97, 4-amino-5-[2-(difluoromethyl)pyrimidin-5-yl]-7-{1-[1-(2-fluorophenyl)-1H-pyrazol-4-yl]ethyl}pyrrolo[2,1-f][1,2,4]triazine-6-carbonitrile], the EC50 at CFTR was 3.87 nM. Still for that read-out and setting: to `CCC(c1cn(-c2ccccc2F)nn1)c1c(C#N)c(-c2cnc(C(F)(F)F)nc2)c2c(N)ncnn12` (stereo not drawn) [Example 25, 4-amino-7-{1-[1-(2-fluorophenyl)-1H-1,2,3-triazol-4-yl]propyl}-5-[2-(trifluoromethyl)pyrimidin-5-yl]pyrrolo[2,1-f][1,2,4]triazine-6-carbonitrile] belongs 7.86 nM.

A word on the EC50: it is the concentration needed to bring the measured effect to its halfway point.
